Results published in US4006225A, “Method of using reduction products of everninomicins as antibacterial agents and pharmaceutical compositions useful therefor” (Schering Corporation, priority 1975, dated 1977).
≈ marks a conversion by molar mass, not a printed value. Where “and” joins values, the source holds several entries; their conditions need not be identical. Identical values can stand only once. Entries after “also recorded” stand apart in the source; their conditions may differ. Counter-ions that a name gives are not always drawn. Like-named read-outs stand apart in the source and are kept apart here.

What was measured:
[1] = test system: Staphylococcus and Streptococcus; test: in vitro susceptibility of gram-positive microorganisms, standard tube dilution (MIC); format: cell-based; settings: for MIC: Staphylococcus and Streptococcus, 24 hours at 37° C, Penassay broth; for antibacterial activity compared with everninomicin D: gram-positive bacteria
Experimental: The comparative in vitro activities of nitrosoeverninomicin D and the sodium salt thereof, hydroxylaminoeverninomicin D and the sodium salt and N-methylglucamine salt thereof, hydroxylaminoeverninomicin D benzyl nitrone N-methylglucamine salt, hydroxylaminoeverninomicin B and hydroxylaminoeverninomicin C are set forth in Table 1 below. The susceptibility of the test gram-positive microorganisms to the antibacterials was determined by standard tube dilution methods. In each instance 10^^-5 dilutions of 24-hour broth cultures were employed as inoculum with the endpoints being taken after incubation for 24 hours at 37° C in a Difco […] broth medium (Difco Labs., Detroit, Michigan). In the tables, the activity (or assay value) of each respective antibacterial agent is expressed in units per milliliter or micrograms per milliliter.

[2] = acute toxicity (LD50) in mice; settings: mouse, in vivo; for LD50 in mice I.P. (mg/kg): ip; for LD50 in mice I.V. (mg/kg): iv; for LD50 in mice S.C. (mg/kg): sc
Experimental: The acute toxicity (LD50) of the antibacterial substances in either aqueous suspensions or aqueous solutions is measured in milligrams per kilogram in standard manner using male CF-1 mice weighing 20 grams.

[3] = peak serum levels in dogs; format: in vivo; settings: dog, 10 mg/kg I.M.
Experimental: (§1) In determining peak serum levels, the animal tested (e.g. dog or rat) is given a single dose of 10 or 25 mg/kg of everninomicin D or derivative thereof of this invention, blood samples are taken periodically, and the serum thereof is assayed for anti-bacterial activity by an agar-diffusion-assay as described by Weinstein et al., Antimicrobial Agents and Chemotherapy, p 24 (1964).

[4] = peak serum levels in rats; format: in vivo; settings: rat, 25 mg/kg S.C.
Experimental: as §1

[5] = pKa of purified everninomicin D; format: physicochemical
[6] = test system: N.gonorrhea and N.meningitidis; test: in vitro susceptibility of gram-negative microorganisms, plate dilution in Thayer-Martin medium (MIC); format: cell-based, Neisseria gonorrhea and Neisseria meningitidis; settings: for MIC: N.gonorrhea and N.meningitidis, Thayer-Martin medium
Experimental: The susceptibility of the gram-negative microorganisms to the antibacterials was determined by plate dilution methods in Thayer-Martin medium by the known Thayer-Martin procedure.

[7] = absorption, serum levels and excretion after injection compared with everninomicin D; format: in vivo; settings: by injection
Experimental: as §1

[8] = test system: S. aureus (A.T.C.C. 6538p); test: microbiological assay (bioassay), cup-type agar diffusion; format: cell-based
Experimental: The microbiological assay (also called the bioassay) is effected microbiologically by a standard cup-type agar diffusion assay technique using S. aureus (A.T.C.C. 6538p) as test organism. A reference curve is prepared by plotting the dosage-response of the antibacterial agent in ethanol diluted by phosphate buffer at pH7 upon a medium of the following composition which has been inoculated with the test organism (i.e. S. aureus): A suspension of the assay organism (S. aureus A.T.C.C. 6538p) is standardized to produce 20% transmission at 660 mμ in a colorimeter. The potency of the sample is determined from the reference curve and expressed in terms of units per milligram (a unit being that amount of test substance required to produce a 15 mm zone of inhibition with a steel cylinder of 6.5 mm outside diameter).

COCC1OC(OC2OCC3OC4(OCC(O)(C(C)OC)C5OCOC54)OC3C2OC)C(OC)C(O)C1OC1OC(C)C(OC)C(OC2CC3(C)OC4(CC(O)C(OC5CC(OC6CC(C)([N+](=O)[O-])C(OC)C(C)O6)C(OC(=O)c6c(C)c(Cl)c(O)c(Cl)c6OC)C(C)O5)C(C)O4)OC3C(C)O2)C1O (stereo not drawn) [Everninomicin D, everninomicin D, reference compound]
MIC ([1]; 24 h, read-out: MIC): 0.03 to 0.3 µg/mL (≈ 0.0195 to 0.195 µM) | LD50 in mice I.P. (mg/kg) [2]: > 3800 | LD50 in mice I.V. (mg/kg) [2]: 125 | LD50 in mice Oral (mg/kg) [2]: > 3800 | LD50 in mice S.C. (mg/kg) [2]: > 3800 | Peak serum levels in dogs [3]: 2 to 3 µg/mL | Peak serum levels in rats [4]: 10 to 12 µg/mL | pKa [5]: 7.2

COCC1OC(OC2OCC3OC4(OCC(O)(C(C)OC)C5OCOC54)OC3C2OC)C(OC)C(O)C1OC1OC(C)C(OC)C(OC2OC(C)C3OC4(CC(O)C(OC5CC(OC6CC(C)(NO)C(OC)C(C)O6)C(OC(=O)c6c(C)c(Cl)c(O)c(Cl)c6OC)C(C)O5)C(C)O4)OC3(C)C2O)C1O (stereo not drawn) [Hydroxylaminoeverninomicin B, hydroxylaminoeverninomicin B]
MIC ([1]; 24 h, read-out: MIC): 0.1 to 1 µg/mL (≈ 0.065 to 0.65 µM)

COCC1OC(OC2OCC3OC4(OCC(O)C5OCOC54)OC3C2OC)C(OC)C(O)C1OC1OC(C)C(OC)C(OC2CC3(C)OC4(CC(O)C(OC5CC(OC6CC(C)(NO)C(OC)C(C)O6)C(OC(=O)c6c(C)c(Cl)c(O)c(Cl)c6OC)C(C)O5)C(C)O4)OC3C(C)O2)C1O (stereo not drawn) [Hydroxylaminoeverninomicin C, hydroxylaminoeverninomicin C]
MIC ([1]; 24 h, read-out: MIC): 0.1 to 0.8 µg/mL (≈ 0.0682 to 0.546 µM) | Cmax ([3]; serum, im): 15000 ng/mL

COCC1OC(OC2OCC3OC4(OCC(O)(C(C)OC)C5OCOC54)OC3C2OC)C(OC)C(O)C1OC1OC(C)C(OC)C(OC2CC3(C)OC4(CC(O)C(OC5CC(OC6CC(C)(NO)C(OC)C(C)O6)C(OC(=O)c6c(C)c(Cl)c(O)c(Cl)c6OC)C(C)O5)C(C)O4)OC3C(C)O2)C1O (stereo not drawn) [Hydroxylaminoeverninomicin D N-methylglucamine salt]
MIC [1]: 0.08 to 0.8 µg/mL | MIC [6]: 0.2 to 1.0 µg/mL | LD50 in mice I.P. (mg/kg) [2]: 500 | LD50 in mice I.V. (mg/kg) [2]: 30 | LD50 in mice Oral (mg/kg) [2]: > 2000 | LD50 in mice S.C. (mg/kg) [2]: 500 | Peak serum levels in dogs [3]: 20 to 30 µg/mL | Peak serum levels in rats [4]: 30 to 40 µg/mL

COCC1OC(OC2OCC3OC4(OCC(O)(C(C)OC)C5OCOC54)OC3C2OC)C(OC)C(O)C1OC1OC(C)C(OC)C(OC2CC3(C)OC4(CC(O)C(OC5CC(OC6CC(C)(NO)C(OC)C(C)O6)C(OC(=O)c6c(C)c(Cl)c(O)c(Cl)c6OC)C(C)O5)C(C)O4)OC3C(C)O2)C1O (stereo not drawn) [Hydroxylaminoeverninomicin D sodium salt, hydroxylaminoeverninomicin D sodium salt]
MIC ([1]; sodium salt): 0.08 to 0.8 µg/mL | antibacterial activity compared with everninomicin D ([1]; sodium salt): antibacterial activity comparable to that of the everninomicin D precursor; also recorded: comparable antibacterial activity against gram-positive bacteria | MIC ([6]; Neisseria meningitidis, read-out: MIC): 0.2 to 1 µg/mL | LD50 in mice I.P. (mg/kg) [2]: 500 | LD50 in mice I.V. (mg/kg) [2]: 30 | LD50 in mice Oral (mg/kg) [2]: > 2000 | LD50 in mice S.C. (mg/kg) [2]: 500 | Peak serum levels in dogs [3]: 20 to 30 µg/mL | Peak serum levels in rats [4]: 30 to 40 µg/mL | absorption compared with everninomicin D [7]: more rapidly absorbed | excretion compared with everninomicin D [7]: more rapidly excreted than everninomicin D | serum levels compared with everninomicin D [7]: higher serum levels

COCC1OC(OC2OCC3OC4(OCC(O)(C(C)OC)C5OCOC54)OC3C2OC)C(OC)C(O)C1OC1OC(C)C(OC)C(OC2CC3(C)OC4(CC(O)C(OC5CC(OC6CC(C)(NO)C(OC)C(C)O6)C(OC(=O)c6c(C)c(Cl)c(O)c(Cl)c6OC)C(C)O5)C(C)O4)OC3C(C)O2)C1O (stereo not drawn) [Hydroxylaminoeverninomicin D, hydroxylaminoeverninomicin D]
MIC [1]: 0.3 to 0.8 µg/mL | antibacterial activity compared with everninomicin D [1]: antibacterial activity comparable to that of everninomicin D; also recorded: comparable antibacterial activity against gram-positive bacteria | activity against certain gram-negative bacteria ([6]; certain gram-negative bacteria, in words): certain gram-negative bacteria are also susceptible | absorption compared with everninomicin D [7]: more rapidly absorbed

COCC1OC(OC2OCC3OC4(OCC(O)(C(C)OC)C5OCOC54)OC3C2OC)C(OC)C(O)C1OC1OC(C)C(OC)C(OC2CC3(C)OC4(CC(O)C(OC5CC(OC6CC(C)(N=O)C(OC)C(C)O6)C(OC(=O)c6c(C)c(Cl)c(O)c(Cl)c6OC)C(C)O5)C(C)O4)OC3C(C)O2)C1O (stereo not drawn) [Nitrosoeverninomicin D sodium salt, nitrosoeverninomicin D sodium salt]
MIC ([1]; sodium salt): 0.08 to 3 µg/mL

COCC1OC(OC2OCC3OC4(OCC(O)(C(C)OC)C5OCOC54)OC3C2OC)C(OC)C(O)C1OC1OC(C)C(OC)C(OC2CC3(C)OC4(CC(O)C(OC5CC(OC6CC(C)(N=O)C(OC)C(C)O6)C(OC(=O)c6c(C)c(Cl)c(O)c(Cl)c6OC)C(C)O5)C(C)O4)OC3C(C)O2)C1O (stereo not drawn) [Nitrosoeverninomicin D, nitrosoeverninomicin D]
MIC ([1]; 24 h, read-out: MIC): 0.08 to 0.8 µg/mL (≈ 0.0526 to 0.526 µM) | Bioassay [8]: 1460 µg/mL | Peak serum levels in dogs [3]: 6 µg/mL | Peak serum levels in rats [4]: 10 to 11 µg/mL

COCC1OC(OC2OCC3OC4(OCC(O)(C(C)OC)C5OCOC54)OC3C2OC)C(OC)C(O)C1OC1OC(C)C(OC)C(OC2CC3(C)OC4(CC(O)C(OC5CC(OC6CC(C)([N+]([O-])=Cc7ccccc7)C(OC)C(C)O6)C(OC(=O)c6c(C)c(Cl)c(O)c(Cl)c6OC)C(C)O5)C(C)O4)OC3C(C)O2)C1O (stereo not drawn) [hydroxylaminoeverninomicin D benzyl nitrone N-methylglucamine salt]
Peak serum levels in dogs [3]: 1 to 2 µg/mL | Peak serum levels in rats ([4]; 25 mg/kg): 10 to 12 µg/mL and 9 µg/mL

COCC1OC(OC2OCC3OC4(OCC(O)(C(C)OC)C5OCOC54)OC3C2OC)C(OC)C(O)C1OC1OC(C)C(OC)C(OC2CC3(C)OC4(CC(O)C(OC5CC(OC6CC(C)([N+]([O-])=Cc7ccccc7)C(OC)C(C)O6)C(OC(=O)c6c(C)c(Cl)c(O)c(Cl)c6OC)C(C)O5)C(C)O4)OC3C(C)O2)C1O (stereo not drawn) [hydroxylaminoeverninomicin D benzyl nitrone]
Bioassay [8]: 1309.0 µg/mL

COCC1OC(OC2OCC3OC4(OCC(O)(C(C)OC)C5OCOC54)OC3C2OC)C(OC)C(O)C1OC1OC(C)C(OC)C(OC2CC3(C)OC4(CC(O)C(OC5CC(OC6CC(C)([N+]([O-])=Cc7ccco7)C(OC)C(C)O6)C(OC(=O)c6c(C)c(Cl)c(O)c(Cl)c6OC)C(C)O5)C(C)O4)OC3C(C)O2)C1O (stereo not drawn) [hydroxylaminoeverninomicin D furfuryl nitrone]
Bioassay [8]: 1063.4 µg/mL

CCCCCCC=[N+]([O-])C1(C)CC(OC2CC(OC3C(O)CC4(OC3C)OC3C(C)OC(OC5C(O)C(OC6C(COC)OC(OC7OCC8OC9(OCC(O)(C(C)OC)C%10OCOC%109)OC8C7OC)C(OC)C6O)OC(C)C5OC)CC3(C)O4)OC(C)C2OC(=O)c2c(C)c(Cl)c(O)c(Cl)c2OC)OC(C)C1OC (stereo not drawn) [hydroxylaminoeverninomicin D heptyl nitrone]
Bioassay [8]: 892 µg/mL
